One data set in a line: in vitro. The note with it: for cytotoxicity at 41 h, 10 µM: human.
In a further data set the test system is Cryptosporidium parvum. As to the kind of experiment: qRT-PCR assay of the growth of C. parvum in vitro in HCT-8 host cells (primary and secondary screening, EC50). It counts as cell-based. The note with it: Cryptosporidium parvum, HCT-8; for inhibition at 3.3 µM: secondary screening at 3.3 uM, read-out: % Inhibition (3.3 uM). (In general: Real-time PCR tracks product formation cycle by cycle.)

Setting [1] is: primary screening at 10 uM, read-out: Inhibition (%).
The mark [2] stands for this setting: primary screening at 10 uM, treated vs control.

Each structure is given as a SMILES string. Structures can show the parent of a compound that is named as a salt. Where two headings read alike, the source gives them in different places.

The record followed here is publication PMC6736568, “Discovery of Novel Anti-cryptosporidial Activities From Natural Products by in vitro High-Throughput Phenotypic Screening” (Frontiers in Microbiology, 2019).

In general, inhibition refers to the drop in the measured response relative to a control, in per cent. Take `O=c1c(O)c(-c2ccc(O)cc2)oc2cc(O)cc(O)c12` [KAEMPFEROL]: the “Hs18S ΔCT” value in the data set with HCT-8 host cells (Hs18S) (human, 41 h, 10 μM) was 0.54. Besides, the cytotoxicity at 41 h, 10 µM in “in vitro” was found to be 31.2%. Further, the inhibition at 10 µM in the data set with Cryptosporidium parvum (setting [1]) worked out at 19.8%.

For `COc1ccc2c(c1)[nH]c1c(C)nccc12` [HARMINE], the “Hs18S ΔCT” value with HCT-8 host cells (Hs18S) (setting [2]) is listed as 0.49. For the same compound, the cytotoxicity at 10 µM in “in vitro” was 28.6%. In the data set with Cryptosporidium parvum (setting [1]), the inhibition at 10 µM came to 82.2%. Further, the inhibition at 3.3 µM in the data set on Cryptosporidium parvum was -62%.

For the compound `CC(C)c1ccc2c(c1)CC[C@H]1[C@](C)(C(N)=O)CCC[C@]21C` [DEHYDROABIETAMIDE], the “Hs18S ΔCT” value with HCT-8 host cells (Hs18S) (human, 41 h, 10 μM) is given as -0.01. Besides, the cytotoxicity at 41 h, 10 µM in the data set “in vitro” is -0.7%. Besides, in the data set with Cryptosporidium parvum (setting [1]), the inhibition at 10 µM was 8.3%.

As for `COc1c2ccoc2c(OC)c2oc(=O)ccc12` [ISOPIMPINELLIN], the “Hs18S ΔCT” value in the data set on HCT-8 host cells (Hs18S) (human, 41 h, 10 μM) is given as -0.24. For the same compound, the cytotoxicity at 41 h, 10 µM in the data set “in vitro” is -18.1%. Moreover, the inhibition at 10 µM with Cryptosporidium parvum (setting [1]) was -23.2%.

With `O=C(O)CCC1NCC2CC1CN1CCCCC21` (centres unmarked) [LUPANYL ACID HYDROCHLORIDE], the “Hs18S ΔCT” value with HCT-8 host cells (Hs18S) (human, 41 h, 10 μM) came out at 0.09. Moreover, the cytotoxicity at 41 h, 10 µM in the data set “in vitro” came out at 6%. Also, the inhibition at 10 µM with Cryptosporidium parvum (setting [1]) turned out to be 5.4%.

As to `CO[C@H]1C[C@@H]2CC[C@@H](C)[C@@](O)(O2)C(=O)C(=O)N2CCCC[C@H]2C(=O)O[C@H]([C@H](C)C[C@@H]2CC[C@@H](O)[C@H](OC)C2)CC(=O)[C@H](C)/C=C(\C)[C@@H](O)[C@@H](OC)C(=O)[C@H](C)C[C@H](C)/C=C/C=C/C=C/1C` [SIROLIMUS], the “Hs18S ΔCT” value in the data set with HCT-8 host cells (Hs18S) (human, 41 h, 10 μM) is reported as 0.94. Moreover, in the data set “in vitro”, the cytotoxicity at 41 h, 10 µM was 47.9%. Further, the inhibition at 10 µM with Cryptosporidium parvum (setting [1]) is 76.6%. Moreover, the inhibition at 3.3 µM with Cryptosporidium parvum came out at 35%.

As to `COc1ccc([C@@H]2CC(=O)c3c(O)cc(O)cc3O2)cc1O` [HESPERETIN], the “Hs18S ΔCT” value in the data set with HCT-8 host cells (Hs18S) (human, 41 h, 10 μM) is listed as -0.02. Further, the cytotoxicity at 41 h, 10 µM in the data set “in vitro” is -1.2%. Further, the inhibition at 10 µM with Cryptosporidium parvum (setting [1]) was 17.6%.

With `COc1cc(C/C=C/c2ccccc2)c(OC)cc1O` [VIOLASTYRENE], the “Hs18S ΔCT” value in the data set with HCT-8 host cells (Hs18S) (human, 41 h, 10 μM) is listed as -0.30. The cytotoxicity at 41 h, 10 µM in the data set “in vitro” is -23.3%. The inhibition at 10 µM in the data set on Cryptosporidium parvum (setting [1]) is -23.6%.

With `C=C1C[C@]23C[C@@]1(O)CC[C@H]2[C@@]12C=C[C@H](O)[C@@](C)(C(=O)O1)[C@H]2[C@@H]3C(=O)O` [GIBBERELLIC ACID], in the data set with HCT-8 host cells (Hs18S) (setting [2]), the “Hs18S ΔCT” value came out at 0.09. Moreover, the cytotoxicity at 10 µM in the data set “in vitro” amounted to 5.9%. Moreover, the inhibition at 10 µM in the data set on Cryptosporidium parvum (setting [1]) was determined as 32.7%.

As to `CC(=O)Oc1ccc(O)cc1` [4-ACETOXYPHENOL], in the data set with HCT-8 host cells (Hs18S) (human, 41 h, 10 μM), the “Hs18S ΔCT” value is reported as 0.21. Besides, the cytotoxicity at 41 h, 10 µM in the data set “in vitro” stood at 13.4%. Moreover, in the data set with Cryptosporidium parvum (setting [1]), the inhibition at 10 µM is -14.1%.

With `CC1(C)CC[C@]2(C(=O)O)CC[C@]3(C)C(=CC[C@@H]4[C@@]5(C)CC[C@H](O)[C@@](C)(CO)[C@@H]5CC[C@]43C)[C@@H]2C1` [HEDERAGENIN], the “Hs18S ΔCT” value with HCT-8 host cells (Hs18S) (setting [2]) is -0.11. Besides, in the data set “in vitro”, the cytotoxicity at 10 µM is -7.7%. Further, the inhibition at 10 µM in the data set on Cryptosporidium parvum (setting [1]) amounted to 53.4%.

As to `COc1ccc2c(c1)OC/C(=C\c1ccc(OC)c(O)c1)C2=O` [SAPPANONE A DIMETHYL ETHER], the “Hs18S ΔCT” value in the data set with HCT-8 host cells (Hs18S) (human, 41 h, 10 μM) is recorded as 0.18. Also, the cytotoxicity at 41 h, 10 µM in “in vitro” turned out to be 11.8%. In addition, in the data set with Cryptosporidium parvum (setting [1]), the inhibition at 10 µM was found to be 11.1%.

As for `O=c1cccc2n1C[C@@H]1CNC[C@H]2C1` [CYTISINE], the “Hs18S ΔCT” value with HCT-8 host cells (Hs18S) is reported as -0.26. Also, the cytotoxicity at 10 µM in “in vitro” is -20%. Besides, the inhibition at 10 µM in the data set on Cryptosporidium parvum was found to be 16%.

In the case of `CC(C)[C@@H](C)/C=C/[C@@H](C)[C@H]1CC[C@H]2C3=CC=C4C[C@@H](O)CC[C@]4(C)[C@H]3CC[C@]12C` [ERGOSTEROL], the “Hs18S ΔCT” value in the data set with HCT-8 host cells (Hs18S) (setting [2]) is -0.03. For the same compound, the cytotoxicity at 41 h, 10 µM in the data set “in vitro” was -1.9%. The inhibition at 10 µM with Cryptosporidium parvum (setting [1]) is -29.6%.

With `COc1ccc(/C=C/c2cc(O)cc(O)c2)cc1` [RESVERATROL 4'-METHYL ETHER], the “Hs18S ΔCT” value in the data set on HCT-8 host cells (Hs18S) (setting [2]) is recorded as -0.37. The cytotoxicity at 10 µM in “in vitro” is -29%. Further, the inhibition at 10 µM in the data set with Cryptosporidium parvum (setting [1]) is -37.3%.

In the case of `c1cncc([C@@H]2CCCCN2)c1` [ANABASINE HYDROCHLORIDE], the “Hs18S ΔCT” value in the data set with HCT-8 host cells (Hs18S) (setting [2]) is on record as -0.08. The cytotoxicity at 10 µM in “in vitro” was -5.5%. For the same compound, in the data set on Cryptosporidium parvum (setting [1]), the inhibition at 10 µM stood at 6.88%.
